Experimental data as given in patent US20260083865A1, “PROSTATE SPECIFIC MEMBRANE ANTIGEN (PSMA) LIGANDS AND USE THEREOF” (priority 2022, published 2026).
Like-named read-outs stand apart in the source and are kept apart here. Numbered stars: 1 amine (or outer) side, 2 acyl side, 3 side chain; on linkers, the order of the positions; unused ones are H or OH. Bridge positions count the residues as written; N and C are the ends. Square brackets hold non-standard residues; d marks the D form. Side chains are listed from the residue outwards. Peptide text beside a SMILES is read from it. * marks the point of attachment. TtdsdLys(DOTA)NH2 = NC(=O)[C@@H](CCCCNC(=O)CN1CCN(CC(=O)O)CCN(CC(=O)O)CCN(CC(=O)O)CC1)NC(=O)CCC(=O)NCCCOCCOCCOCCCN*; DOTA = O=C(O)CN1CCN(CC(=O)O)CCN(CC(=O)*)CCN(CC(=O)O)CC1; Phe(4-Cl) = N[C@@H](Cc1ccc(Cl)cc1)C(=O)O; Propanoyl(3-SO2NH2) = NS(=O)(=O)CCC(=O)*; Pro(4,4-F2) = O=C(O)[C@@H]1CC(F)(F)CN1; Ethylenediamine = C(CN[*:2])N[*:1]; d(αMeD) = C[C@@](N)(CC(=O)O)C(=O)O; hArg = N=C(N)NCCCC[C@H](N)C(=O)O; X1 = O=C(CC1CCN([*:1])CC1)[*:2]; Tle = CC(C)(C)[C@H](N)C(=O)O; 4Amb = NCc1ccc(C(=O)O)cc1; 4Abz = Nc1ccc(C(=O)O)cc1; Aib = CC(C)(N)C(=O)O; βAla = NCCC(=O)O

Key:
[1] = target: T1, PSMA-expressing C4-2 cells (Homo sapiens, UniProt Q04609); test: FACS binding assay (competition with 50 nM PSM-0183)
T1 construct: PSMA-expressing C4-2 cells (ATCC, Cat. No. CRL-3314) were cultured in RPMI-1640; host or cells: C4-2 cells
T1 sequence (Q04609 whole entry): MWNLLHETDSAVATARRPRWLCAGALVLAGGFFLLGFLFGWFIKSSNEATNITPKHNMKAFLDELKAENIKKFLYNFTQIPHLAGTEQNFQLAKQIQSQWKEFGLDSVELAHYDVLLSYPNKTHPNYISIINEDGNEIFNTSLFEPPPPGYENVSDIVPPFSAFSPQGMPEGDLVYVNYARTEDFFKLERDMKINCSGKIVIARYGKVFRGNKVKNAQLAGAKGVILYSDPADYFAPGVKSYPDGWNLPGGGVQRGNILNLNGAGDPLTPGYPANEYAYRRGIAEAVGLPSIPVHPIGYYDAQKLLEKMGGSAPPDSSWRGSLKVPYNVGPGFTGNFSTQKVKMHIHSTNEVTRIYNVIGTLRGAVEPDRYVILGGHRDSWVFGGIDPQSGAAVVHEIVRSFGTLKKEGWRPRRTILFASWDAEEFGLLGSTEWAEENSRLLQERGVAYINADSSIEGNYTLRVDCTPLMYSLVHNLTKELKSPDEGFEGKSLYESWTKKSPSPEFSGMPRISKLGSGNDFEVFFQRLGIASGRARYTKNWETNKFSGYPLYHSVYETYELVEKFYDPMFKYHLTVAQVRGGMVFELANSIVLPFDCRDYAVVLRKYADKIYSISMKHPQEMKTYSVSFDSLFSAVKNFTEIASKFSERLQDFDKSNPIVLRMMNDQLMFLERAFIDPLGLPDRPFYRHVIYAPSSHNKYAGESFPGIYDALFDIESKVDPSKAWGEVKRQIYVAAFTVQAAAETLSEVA
Procedure, shortened: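 C4-2 cells were incubated 1 h at 4 °C with 50 nM AF488-labelled peptide PSM-0183 plus increasing test compound concentrations, then washed twice in ice-cold buffer. Median fluorescence in the AF488 channel was read by flow cytometry. IC50/pIC50 was derived by 4PL fitting of MFI versus concentration.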

[2] = target: T2, Fc-fusion protein of human PSMA (hPSMA-Fc) (Homo sapiens, UniProt Q04609); test: Surface plasmon resonance assay (Biacore T200, single cycle kinetic); format: binding
T2 construct: purchased Acro Biosystems PSA-H5264
T2 sequence (Q04609 44-750 limits assumed): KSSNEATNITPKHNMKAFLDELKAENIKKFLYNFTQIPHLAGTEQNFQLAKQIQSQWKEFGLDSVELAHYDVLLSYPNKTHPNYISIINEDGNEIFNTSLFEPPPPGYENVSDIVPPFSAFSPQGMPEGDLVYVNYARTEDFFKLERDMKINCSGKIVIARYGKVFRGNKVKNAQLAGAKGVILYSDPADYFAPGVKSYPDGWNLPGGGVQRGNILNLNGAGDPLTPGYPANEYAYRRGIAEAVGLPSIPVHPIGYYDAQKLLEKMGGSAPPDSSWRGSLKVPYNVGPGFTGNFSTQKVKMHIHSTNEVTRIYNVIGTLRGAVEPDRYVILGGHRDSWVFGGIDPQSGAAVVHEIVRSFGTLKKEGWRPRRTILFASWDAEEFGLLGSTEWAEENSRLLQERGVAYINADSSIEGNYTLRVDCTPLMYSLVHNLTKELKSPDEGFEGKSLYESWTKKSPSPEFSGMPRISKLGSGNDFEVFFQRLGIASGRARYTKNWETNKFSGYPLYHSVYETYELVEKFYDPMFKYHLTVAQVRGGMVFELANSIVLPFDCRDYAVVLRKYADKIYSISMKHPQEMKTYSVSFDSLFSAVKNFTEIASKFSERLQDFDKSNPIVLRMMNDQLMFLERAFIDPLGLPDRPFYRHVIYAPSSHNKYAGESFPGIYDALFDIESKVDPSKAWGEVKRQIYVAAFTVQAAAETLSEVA
Procedure, shortened: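 hPSMA-Fc was captured (~1000 RU) on an Fc-binding-peptide CM5 chip, and compounds were run in single cycle kinetic mode at 25° C in HBST with 0.1% DMSO. Double-blank-corrected sensorgrams were fitted to a 1:1 Langmuir model to give KD, reported as pKD.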

[3] = FACS binding, C4-2 cells, competition with 50 nM PSM-0183, category, read-out: pIC50 [C4-2] CAT (converted)
[4] = SPR, hPSMA-Fc, single cycle kinetic, 25° C., category, read-out: pKD CAT (converted)

| Structure (SMILES) | IC50 [1, 3] [nM] | Kd [2, 4] [nM] | IC50 [1] [nM] | Kd [2] [nM] |
| --- | --- | --- | --- | --- |
| C[C@@H](O)[C@H](NC(=O)[C@@H](NC(=O)[C@@H]1CSSC[C@H](NC(=O)[C@H](Cc2ccccc2)NC(=O)C(C)(C)NC(=O)[C@@H](NC(=O)CCNC(=O)CN2CCN(CC(=O)O)CCN(CC(=O)O)CCN(CC(=O)O)CC2)[C@@H](C)O)C(=O)N[C@@H](CCCCN)C(=O)N[C@@H](CCCNC(=N)N)C(=O)NC(C)(C)C(=O)N[C@@H](CC(N)=O)C(=O)N1)C(C)(C)C)C(N)=O [PSM-0209, DOTA-Bal-Thr-Aib-Phe-[Cys-Lys-Arg-Aib-Asn-Cys]-Tle-Thr-NH2] ({DOTA-βAla}-T[Aib]FCKR[Aib]NC[Tle]T-NH2; disulfide 4-9) | < 200 | < 12.6 |  |  |
| CC(=O)N[C@H](C(=O)NC(C)(C)C(=O)N[C@@H](Cc1ccccc1)C(=O)N[C@H]1CSSC[C@@H](C(=O)N[C@H](C(=O)N[C@H](C(=O)N[C@@H](CC(=O)O)C(N)=O)[C@@H](C)O)C(C)(C)C)NC(=O)[C@H](CC(N)=O)NC(=O)C(C)(C)NC(=O)[C@H](CCCNC(=N)N)NC(=O)[C@H](CCC(N)=O)NC1=O)[C@@H](C)O [PSM-0210, Ac-Thr-Aib-Phe-[Cys-Gln-Arg-Aib-Asn-Cys]-Tle-Thr-Asp-NH2] (Ac-T[Aib]FCQR[Aib]NC[Tle]TD-NH2; disulfide 4-9) | < 200 | 12.6 to 126 |  |  |
| CC(=O)N[C@H](C(=O)NC(C)(C)C(=O)N[C@@H](Cc1ccccc1)C(=O)N[C@H]1CSSC[C@@H](C(=O)N[C@H](C(=O)N[C@H](C(N)=O)[C@@H](C)O)C(C)(C)C)NC(=O)[C@H](CC(N)=O)NC(=O)[C@H](CCCCNC(=O)c2ccc(NC(=O)CN3CCN(CC(=O)O)CCN(CC(=O)O)CCN(CC(=O)O)CC3)cc2)NC(=O)[C@H](CCCNC(=N)N)NC(=O)[C@H](CCCCN)NC1=O)[C@@H](C)O [PSM-0211, Ac-Thr-Aib-Phe-[Cys-Lys-Arg-Lys(DOTA-Pab)-Asn-Cys]-Tle-Thr-NH2] (Ac-T[Aib]FCKRK([4Abz-DOTA])NC[Tle]T-NH2; disulfide 4-9) | < 200 | < 12.6 |  |  |
| CC(=O)N[C@H](C(=O)NC(C)(C)C(=O)N[C@@H](Cc1ccccc1)C(=O)N[C@H]1CSSC[C@@H](C(=O)N[C@H](C(=O)N[C@H](C(=O)N[C@@H](CC(=O)O)C(=O)NCCCOCCOCCOCCCNC(=O)CCC(=O)N[C@H](CCCCNC(=O)CN2CCN(CC(=O)O)CCN(CC(=O)O)CCN(CC(=O)O)CC2)C(N)=O)[C@@H](C)O)C(C)(C)C)NC(=O)[C@H](CC(N)=O)NC(=O)C(C)(C)NC(=O)[C@H](CCCNC(=N)N)NC(=O)[C@H](CCCCN)NC1=O)[C@@H](C)O [PSM-0212, Ac-Thr-Aib-Phe-[Cys-Lys-Arg-Aib-Asn-Cys]-Tle-Thr-Asp-Ttds-lys(DOTA)-NH2] (Ac-T[Aib]FCKR[Aib]NC[Tle]TD-{TtdsdLys(DOTA)NH2}; disulfide 4-9) | < 200 | < 12.6 |  |  |
| C[C@@H](O)[C@H](NC(=O)CN1CCN(CC(=O)O)CCN(CC(=O)O)CCN(CC(=O)O)CC1)C(=O)NC(C)(C)C(=O)N[C@@H](Cc1ccc(Cl)cc1)C(=O)N[C@H]1CSSC[C@@H](C(=O)N[C@H](C(=O)NCCC(N)=O)C(C)(C)C)NC(=O)[C@H](CC(N)=O)NC(=O)C(C)(C)NC(=O)[C@H](CCCNC(=N)N)NC(=O)[C@H](CCCCN)NC1=O [PSM-0216, DOTA-Thr-Aib-Pcf-[Cys-Lys-Arg-Aib-Asn-Cys]-Tle-Bal-NH2] ({DOTA}-T[Aib][Phe(4-Cl)]CKR[Aib]NC[Tle][βAla]-NH2; disulfide 4-9) | < 200 | < 12.6 |  |  |
| CC(=O)N[C@H](C(=O)NC(C)(C)C(=O)N[C@@H](Cc1ccccc1)C(=O)N[C@H]1CSSC[C@@H](C(=O)N[C@H](C(=O)N[C@H](C(=O)N[C@@H](CC(=O)O)C(N)=O)[C@@H](C)O)C(C)(C)C)NC(=O)[C@H](CC(N)=O)NC(=O)[C@@H]2CC(F)(F)CN2C(=O)[C@H](CCCNC(=N)N)NC(=O)[C@H](CCCCN)NC1=O)[C@@H](C)O [PSM-0217, Ac-Thr-Aib-Phe-[Cys-Lys-Arg-Dfp-Asn-Cys]-Tle-Thr-Asp-NH2] (Ac-T[Aib]FCKR[Pro(4,4-F2)]NC[Tle]TD-NH2; disulfide 4-9) |  |  | < 200 | 12.6 to 126 |
| CC(C)(NC(=O)c1ccc(CNC(=O)CN2CCN(CC(=O)O)CCN(CC(=O)O)CCN(CC(=O)O)CC2)cc1)C(=O)N[C@@H](Cc1ccccc1)C(=O)N[C@H]1CSSC[C@@H](C(=O)N[C@H](C(=O)NCCN)C(C)(C)C)NC(=O)[C@H](CC(N)=O)NC(=O)C(C)(C)NC(=O)[C@H](CCCNC(=N)N)NC(=O)[C@H](CCCCN)NC1=O [PSM-0221, DOTA-Pamb-Aib-Phe-[Cys-Lys-Arg-Aib-Asn-Cys]-Tle-en] ({DOTA-4Amb}-[Aib]FCKR[Aib]NC[Tle]-Ethylenediamine; disulfide 3-8) | < 200 | < 12.6 |  |  |
| C[C@@H](O)[C@H](NC(=O)CN1CCN(CC(=O)O)CCN(CC(=O)O)CCN(CC(=O)O)CC1)C(=O)NC(C)(C)C(=O)N[C@@H](Cc1ccc(Cl)cc1)C(=O)N[C@H]1CSSC[C@@H](C(=O)N[C@H](C(=O)NCCN)C(C)(C)C)NC(=O)[C@H](CC(N)=O)NC(=O)C(C)(C)NC(=O)[C@H](CCCNC(=N)N)NC(=O)[C@H](CCCCN)NC1=O [PSM-0222, DOTA-Thr-Aib-Pcf-[Cys-Lys-Arg-Aib-Asn-Cys]-Tle-en] ({DOTA}-T[Aib][Phe(4-Cl)]CKR[Aib]NC[Tle]-Ethylenediamine; disulfide 4-9) | < 200 | < 12.6 |  |  |
| C[C@@H](O)[C@H](NC(=O)[C@@H](NC(=O)[C@@H]1CSSC[C@H](NC(=O)[C@H](Cc2ccccc2)NC(=O)C(C)(C)NC(=O)CCS(N)(=O)=O)C(=O)N[C@@H](CCCCN)C(=O)N[C@@H](CCCNC(=N)N)C(=O)NC(C)(C)C(=O)N[C@@H](CC(N)=O)C(=O)N1)C(C)(C)C)C(N)=O [PSM-0224, SaPr-Aib-Phe-[Cys-Lys-Arg-Aib-Asn-Cys]-Tle-Thr-NH2] ({Propanoyl(3-SO2NH2)}-[Aib]FCKR[Aib]NC[Tle]T-NH2; disulfide 3-8) | < 200 | < 12.6 |  |  |

Further lines, with some results ahead:

| IC50 [1, 3] [nM] | Kd [2, 4] [nM] | Structure (SMILES) | IC50 [1] [nM] | Kd [2] [nM] |
| --- | --- | --- | --- | --- |
| < 200 | 12.6 to 126 | C[C@@H](O)[C@H](NC(=O)[C@@H](NC(=O)[C@@H]1CSSC[C@H](NC(=O)[C@H](Cc2ccc(Cl)cc2)NC(=O)C(C)(C)NC(=O)CCS(N)(=O)=O)C(=O)N[C@@H](CCCCN)C(=O)N[C@@H](CCCNC(=N)N)C(=O)NC(C)(C)C(=O)N[C@@H](CC(N)=O)C(=O)N1)C(C)(C)C)C(=O)N1CCC(CC(=O)N[C@H](CCCCNC(=O)CN2CCN(CC(=O)O)CCN(CC(=O)O)CCN(CC(=O)O)CC2)C(N)=O)CC1 [PSM-0215, SaPr-Aib-Pcf-[Cys-Lys-Arg-Aib-Asn-Cys]-Tle-Thr-Cmp-lys(DOTA)-NH2] ({Propanoyl(3-SO2NH2)}-[Aib][Phe(4-Cl)]CKR[Aib]NC[Tle]T[X1][dK](DOTA)-NH2; disulfide 3-8) |  |  |
| < 200 | 12.6 to 126 | CC(C)C[C@H](NC(=O)CC1CCN(C(=O)CN2CCN(CC(=O)O)CCN(CC(=O)O)CCN(CC(=O)O)CC2)CC1)C(=O)NC(C)(C)C(=O)N[C@@H](Cc1ccccc1)C(=O)N[C@H]1CSSC[C@@H](C(=O)N[C@H](C(=O)N[C@H](C(N)=O)[C@@H](C)O)C(C)(C)C)NC(=O)[C@H](CC(N)=O)NC(=O)C(C)(C)NC(=O)[C@H](CCCNC(=N)N)NC(=O)[C@H](CCCCN)NC1=O [PSM-0220, DOTA-Cmp-Leu-Aib-Phe-[Cys-Lys-Arg-Aib-Asn-Cys]-Tle-Thr-NH2] ({DOTA}-[X1]L[Aib]FCKR[Aib]NC[Tle]T-NH2; disulfide 5-10) |  |  |
| 200 to 1260 | 12.6 to 126 | CC(=O)NC(=N)NCCC[C@@H]1NC(=O)[C@H](CCCCN)NC(=O)[C@@H](NC(=O)[C@H](Cc2ccc(Cl)cc2)NC(=O)C(C)(C)NC(=O)CC2CCN(C(=O)CN3CCN(CC(=O)O)CCN(CC(=O)O)CCN(CC(=O)O)CC3)CC2)CSSC[C@@H](C(=O)N[C@H](C(=O)N[C@H](C(N)=O)[C@@H](C)O)C(C)(C)C)NC(=O)[C@H](CC(N)=O)NC(=O)C(C)(C)NC1=O [PSM-0223, DOTA-Cmp-Aib-Pcf-[Cys-Lys-Arg(Ac)-Aib-Asn-Cys]-Tle-Thr-NH2] ({DOTA}-[X1][Aib][Phe(4-Cl)]CKR(Ac)[Aib]NC[Tle]T-NH2; disulfide 4-9) |  |  |
| < 200 | < 12.6 | C[C@@H](O)[C@H](NC(=O)[C@@H](NC(=O)[C@@H]1CSSC[C@H](NC(=O)[C@H](Cc2ccc(Cl)cc2)NC(=O)C(C)(C)NC(=O)[C@@H](NC(=O)CC2CCN(C(=O)CN3CCN(CC(=O)O)CCN(CC(=O)O)CCN(CC(=O)O)CC3)CC2)[C@@H](C)O)C(=O)N[C@@H](CCCCNC(=N)N)C(=O)N[C@@H](CCCNC(=N)N)C(=O)NC(C)(C)C(=O)N[C@@H](CC(N)=O)C(=O)N1)C(C)(C)C)C(N)=O [PSM-0225, DOTA-Cmp-Thr-Aib-Pcf-[Cys-Har-Arg-Aib-Asn-Cys]-Tle-Thr-NH2] ({DOTA}-[X1]T[Aib][Phe(4-Cl)]C[hArg]R[Aib]NC[Tle]T-NH2; disulfide 5-10) |  |  |
| < 200 | < 12.6 | C[C@@H](O)[C@H](NC(=O)[C@@H](NC(=O)[C@@H]1CSSC[C@H](NC(=O)[C@H](Cc2ccc(Cl)cc2)NC(=O)C(C)(C)NC(=O)[C@@H](NC(=O)CC2CCN(C(=O)CN3CCN(CC(=O)O)CCN(CC(=O)O)CCN(CC(=O)O)CC3)CC2)[C@@H](C)O)C(=O)N[C@@H](CCCCN)C(=O)N[C@@H](CCCNC(=N)N)C(=O)N[C@](C)(CC(=O)O)C(=O)N[C@@H](CC(N)=O)C(=O)N1)C(C)(C)C)C(N)=O [PSM-0227, DOTA-Cmp-Thr-Aib-Pcf-[Cys-Lys-Arg-amd-Asn-Cys]-Tle-Thr-NH2] ({DOTA}-[X1]T[Aib][Phe(4-Cl)]CKR[d(αMeD)]NC[Tle]T-NH2; disulfide 5-10) |  |  |
